In one assay the target is TRPM8 protein domain (Homo sapiens, UniProt Q7Z2W7). The assay is described as follows: Activation of TRPM8 by menthol (shift of activation curve). Type of assay: biochemical. The note with it: FIG. 5. The text has this:
FIG. 3 illustrates the regulation of the ion channel via cold temperature change to an open channel within the protein membrane. The TRPM8 protein domain is weakly voltage-dependant and polymodal in that it can be activated with more than one agonist.

Assay [1] deals with human bladder cancer cell lines. The note with it: cited from earlier work.

Chain of TRPM8 protein domain (Q7Z2W7 whole entry, the tested form may be a part): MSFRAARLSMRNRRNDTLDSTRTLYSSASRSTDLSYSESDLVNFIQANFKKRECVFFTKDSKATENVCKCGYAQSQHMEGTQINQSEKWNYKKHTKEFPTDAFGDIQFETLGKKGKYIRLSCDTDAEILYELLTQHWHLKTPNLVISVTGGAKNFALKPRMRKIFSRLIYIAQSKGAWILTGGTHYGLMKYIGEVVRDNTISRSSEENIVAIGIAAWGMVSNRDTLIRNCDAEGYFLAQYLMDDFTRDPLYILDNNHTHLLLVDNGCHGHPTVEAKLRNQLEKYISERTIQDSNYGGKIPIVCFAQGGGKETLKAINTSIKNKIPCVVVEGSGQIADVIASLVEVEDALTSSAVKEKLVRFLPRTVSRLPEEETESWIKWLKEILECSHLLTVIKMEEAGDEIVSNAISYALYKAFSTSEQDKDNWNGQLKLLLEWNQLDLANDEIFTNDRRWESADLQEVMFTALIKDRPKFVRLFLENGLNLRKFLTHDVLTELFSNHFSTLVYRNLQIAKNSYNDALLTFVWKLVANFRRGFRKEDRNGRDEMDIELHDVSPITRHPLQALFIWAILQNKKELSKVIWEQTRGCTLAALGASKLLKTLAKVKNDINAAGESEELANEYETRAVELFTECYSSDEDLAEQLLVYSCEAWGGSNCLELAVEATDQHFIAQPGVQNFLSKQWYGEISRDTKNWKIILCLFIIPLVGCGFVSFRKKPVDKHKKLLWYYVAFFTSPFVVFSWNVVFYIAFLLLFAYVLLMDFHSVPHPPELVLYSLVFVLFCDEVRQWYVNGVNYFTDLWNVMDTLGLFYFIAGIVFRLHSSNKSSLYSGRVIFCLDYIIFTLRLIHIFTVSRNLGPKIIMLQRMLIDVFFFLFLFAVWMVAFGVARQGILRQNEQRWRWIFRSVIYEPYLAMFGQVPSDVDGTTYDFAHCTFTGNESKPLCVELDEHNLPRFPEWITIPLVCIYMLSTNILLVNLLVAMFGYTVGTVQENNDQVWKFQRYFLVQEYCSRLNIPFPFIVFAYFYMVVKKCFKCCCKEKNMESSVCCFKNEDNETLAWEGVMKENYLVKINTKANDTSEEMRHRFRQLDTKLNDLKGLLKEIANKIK

For the molecule `CC1CCC(C(C)C)C(O)C1` (centres unmarked) [menthol], the “activation of the TRPM8 protein domain” value at TRPM8 protein domain is “activates the TRPM8 protein domain by shifting the activation curve”. Besides, the cell death entry in assay [1] is “induces cell death in human bladder cancer cell lines”.

The values above are taken from US9908926B2, “Protein-based molecular temperature switch” (ARIZONA BOARD OF REGENTS ON BEHALF OF ARIZONA STATE …, priority 2014, dated 2018).
